± gives the expanded uncertainty stated by the source.
Assay: xn = mol fraction of the nth substance listed
Conditions: for mass density: 101 kPa, Liquid

CCCCCCCCO [octan-1-ol] + CCCCCCC
Conditions | mass density [kg/m3] | surface tension liquid-gas [mN/m]
298.15 K, x2 = 0.0514 | 815.21 ± 0.46 | –
298.15 K, x2 = 0.1001 | 808.98 ± 0.47 | –
298.15 K, x2 = 0.2015 | 795.72 ± 0.49 | –
298.15 K, x2 = 0.3082 | 781.22 ± 0.51 | –
298.15 K, x2 = 0.4054 | 767.63 ± 0.53 | –
298.15 K, x2 = 0.517 | 751.77 ± 0.55 | –
298.15 K, x2 = 0.6305 | 735.37 ± 0.57 | –
298.15 K, x2 = 0.7114 | 723.44 ± 0.59 | –
298.15 K, x2 = 0.8136 | 707.99 ± 0.61 | –
298.15 K, x2 = 0.9061 | 693.84 ± 0.63 | –
298.15 K, x2 = 0.9518 | 686.85 ± 0.64 | –
303.15 K, x2 = 0.0504 | – | 25.18 ± 0.3
303.15 K, x2 = 0.0514 | 811.7 ± 0.47 | –
303.15 K, x2 = 0.1001 | 805.43 ± 0.47 | –
303.15 K, x2 = 0.1033 | – | 24.57 ± 0.29
303.15 K, x2 = 0.2015 | 792.09 ± 0.49 | –
303.15 K, x2 = 0.2052 | – | 23.46 ± 0.29
303.15 K, x2 = 0.3082 | 777.49 ± 0.51 | –
303.15 K, x2 = 0.3108 | – | 22.37 ± 0.28
303.15 K, x2 = 0.4054 | 763.85 ± 0.53 | –
303.15 K, x2 = 0.4134 | – | 21.56 ± 0.28
303.15 K, x2 = 0.5153 | – | 20.94 ± 0.27
303.15 K, x2 = 0.517 | 747.87 ± 0.55 | –
303.15 K, x2 = 0.6005 | – | 20.46 ± 0.27
303.15 K, x2 = 0.6305 | 731.38 ± 0.58 | –
303.15 K, x2 = 0.7067 | – | 19.98 ± 0.27
303.15 K, x2 = 0.7114 | 719.37 ± 0.59 | –
303.15 K, x2 = 0.8043 | – | 19.58 ± 0.27
303.15 K, x2 = 0.8136 | 703.84 ± 0.61 | –
303.15 K, x2 = 0.9047 | – | 19.22 ± 0.26
303.15 K, x2 = 0.9061 | 689.61 ± 0.63 | –
303.15 K, x2 = 0.9486 | – | 19.14 ± 0.26
303.15 K, x2 = 0.9518 | 682.59 ± 0.64 | –
308.15 K, x2 = 0.0514 | 808.16 ± 0.47 | –
308.15 K, x2 = 0.0562 | – | 24.54 ± 0.29
308.15 K, x2 = 0.1001 | 801.85 ± 0.48 | –
308.15 K, x2 = 0.1017 | – | 24.05 ± 0.29
308.15 K, x2 = 0.2015 | 788.43 ± 0.5 | –
308.15 K, x2 = 0.2078 | – | 22.86 ± 0.28
308.15 K, x2 = 0.3065 | – | 21.92 ± 0.28
308.15 K, x2 = 0.3082 | 773.75 ± 0.52 | –
308.15 K, x2 = 0.4054 | 760.1 ± 0.54 | –
308.15 K, x2 = 0.4117 | – | 21.11 ± 0.27
308.15 K, x2 = 0.5064 | – | 20.53 ± 0.27
308.15 K, x2 = 0.517 | 743.94 ± 0.56 | –
308.15 K, x2 = 0.6065 | – | 20 ± 0.27
308.15 K, x2 = 0.6305 | 727.36 ± 0.58 | –
308.15 K, x2 = 0.7081 | – | 19.61 ± 0.27
308.15 K, x2 = 0.7114 | 715.28 ± 0.6 | –
308.15 K, x2 = 0.8 | – | 19.27 ± 0.26
308.15 K, x2 = 0.8136 | 699.65 ± 0.62 | –
308.15 K, x2 = 0.9028 | – | 18.88 ± 0.26
308.15 K, x2 = 0.9061 | 685.35 ± 0.64 | –
308.15 K, x2 = 0.9483 | – | 18.82 ± 0.26
308.15 K, x2 = 0.9518 | 678.3 ± 0.65 | –

From the NIST ThermoML archive (doi:10.1021/je060179e)
